Laboratory results taken from patent US10730875B2, “Substituted imidazo[1,2-A]pyridin-2-ylamine compounds, and pharmaceutical compositions and methods of use thereof” (JN Therapeutics, priority 2015, dated 2020).

Key:
[1] = target: human Janus kinase 2 (JAK2), recombinant catalytic domain (Homo sapiens (Human), UniProt O60674); assay: LanthaScreen TR-FRET enzymatic assay, JAK2; type: biochemical; conditions: for IC50: TR-FRET, 1 mM ATP, GFP-STAT1 substrate, read-out: Inhibitory Activity IC50 JAK2; for Selectivity JAK2/JAK1: ratio of IC50 against JAK2 over IC50 against JAK1
human Janus kinase 2 (JAK2), recombinant catalytic domain, sequence (O60674 808-1132): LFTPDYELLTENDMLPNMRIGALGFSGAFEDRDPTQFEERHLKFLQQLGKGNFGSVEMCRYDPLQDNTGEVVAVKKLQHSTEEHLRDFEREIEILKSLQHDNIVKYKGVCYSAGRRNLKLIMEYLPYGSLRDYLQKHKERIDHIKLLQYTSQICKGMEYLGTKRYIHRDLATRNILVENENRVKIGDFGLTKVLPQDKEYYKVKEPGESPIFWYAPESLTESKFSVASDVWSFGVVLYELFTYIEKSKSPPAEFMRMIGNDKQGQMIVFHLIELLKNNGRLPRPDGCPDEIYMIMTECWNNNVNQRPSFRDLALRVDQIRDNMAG
Procedure: (§1) The in vitro inhibition of recombinant human JAKs was determined as follow.
(§2) Compounds were tested in LANTHASCREEN™ time-resolved fluorescence energy transfer (TR-FRET) enzymatic assays from Invitrogen. The human Janus kinase 1 (JAK1) used in the assay is the recombinant JAK1 catalytic domain (amino acids 866-1154) expressed and purified from insect cells (Invitrogen, Cat. No. PV4774). The human Janus kinase 2 (JAK2) used in the assay is the recombinant JAK2 catalytic domain (amino acids 808-1132) expressed and purified from insect cells (Invitrogen, Cat. No. PV4210). The human Janus kinase 3 (JAK3) used in the assay is the recombinant JAK3 catalytic domain (amino acids 781-1124) expressed and purified from insect cells (Invitrogen, Cat. No. PV3855). The human tyrosine kinase 2 (TYK2) used in the assay is the recombinant TYK2 catalytic domain (amino acids 833-1187) expressed and purified from insect cells (Invitrogen, Cat. No. PV4790). The substrate is a recombinant STAT1 expressed as a fusion with GFP (Green Fluorescent Protein) to act as a physiological substrate (Invitrogen, Cat. No. PV5211).
(§3) Test compounds were prepared and diluted in DMSO in 3-fold serial dilutions for 10 doses to 100× of the final testing concentrations. The compounds were then further diluted to 4× by the kinase reaction buffer (Invitrogen, Cat. No. PV3189). The enzymatic reaction for compound testing was performed in a white 384-well polypropylene plate (Packard, Cat. No. 6005214) with a total reaction volume of 10 μL containing 440 ng/mL JAK1, 11 ng/mL JAK2, 400 ng/mL JAK3, or 200 ng/mL TYK2, 100 nM substrate, and 1 mM ATP. The assay started with loading 2.5 μL of JAK1, JAK2, JAK3, or TYK2 diluted in the kinase reaction buffer to wells, followed by addition of an equal volume of 4× compounds for 15-min incubation at room temperature for pre-treatment. The enzymatic reaction was initiated by addition of 5 μL of a mixture of the substrate and ATP prepared in the kinase reaction buffer. After one hour reaction, 10 μL mixture of EDTA (final 10 mM) and terbium-labeled anti-pSTAT1 (pTyr701) antibody (final 2 nM) (Invitrogen, Cat. No. PV4844) prepared in TR-FRET antibody dilution buffer (Invitrogen, Cat. No. PV3574) was added to stop the enzymatic reaction and produce TR-FRET signals. After 30 minutes of incubation at room temperature, the plate was read in Tecan Infinite F200 Pro with the following settings: Excitation 340 nm (30)/Emission1 495 nm (10)/Emission2 520 nm (25). The TR-FRET values were dimensionless numbers that were calculated as the ratio of the acceptor ([…]) signal to the donor (Terbium) signal. Percent of inhibition was calculated as (100%−percentage of compound-treated/DMSO vehicle-treated). The dose-response curves were generated and the IC50s were calculated by nonlinear sigmoid curve fitting using GraphPad Prism.
(§4) In Table 1, A represents a value no greater than 500 nM, B represents a value greater than 500 nM but no greater than 1 μM, C represents a value greater than 1 μM but no greater than 5 μM, and D represents a value greater than 5 μM. In Table 2, A′ represents a ratio of greater than 8, B′ represents a ratio of no greater than 8 but no less than 4, C′ represents a ratio of no greater than 4 but no less than 2, and D′ represents a ratio of no greater than 2. The selectivity is expressed as a ratio of the IC50 values of a compound against two kinases to be compared.

[2] = tested on: human tyrosine kinase 2 (TYK2), recombinant catalytic domain; assay: LanthaScreen TR-FRET enzymatic assay, TYK2; type: biochemical; conditions: ratio of IC50 against TYK2 over IC50 against JAK1
Procedure: as §1, §2, §3, §4

[3] = target: human tyrosine kinase 2 (TYK2), recombinant catalytic domain (Homo sapiens (Human), UniProt P29597); assay: LanthaScreen TR-FRET enzymatic assay, TYK2; type: biochemical; conditions: TR-FRET, 1 mM ATP, GFP-STAT1 substrate; read-out: Inhibitory Activity IC50 TYK2
human tyrosine kinase 2 (TYK2), recombinant catalytic domain (Homo sapiens (Human), UniProt P29597), sequence (P29597 833-1187): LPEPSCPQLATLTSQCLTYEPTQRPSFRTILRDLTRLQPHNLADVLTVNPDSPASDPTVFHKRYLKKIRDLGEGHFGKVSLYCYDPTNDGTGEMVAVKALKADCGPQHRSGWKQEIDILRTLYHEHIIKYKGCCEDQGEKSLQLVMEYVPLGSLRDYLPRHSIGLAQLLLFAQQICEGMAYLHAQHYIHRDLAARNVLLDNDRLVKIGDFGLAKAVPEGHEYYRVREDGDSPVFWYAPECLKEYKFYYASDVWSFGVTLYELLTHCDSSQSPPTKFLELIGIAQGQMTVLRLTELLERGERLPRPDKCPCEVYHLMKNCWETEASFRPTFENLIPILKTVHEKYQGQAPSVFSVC
Procedure: as §1, §2, §3, §4

[4] = target: human Janus kinase 3 (JAK3), recombinant catalytic domain (Homo sapiens (Human), UniProt P52333); assay: LanthaScreen TR-FRET enzymatic assay, JAK3; type: biochemical; conditions: TR-FRET, 1 mM ATP, GFP-STAT1 substrate; read-out: Inhibitory Activity IC50 JAK3
human Janus kinase 3 (JAK3), recombinant catalytic domain (Homo sapiens (Human), UniProt P52333), sequence (P52333 781-1124): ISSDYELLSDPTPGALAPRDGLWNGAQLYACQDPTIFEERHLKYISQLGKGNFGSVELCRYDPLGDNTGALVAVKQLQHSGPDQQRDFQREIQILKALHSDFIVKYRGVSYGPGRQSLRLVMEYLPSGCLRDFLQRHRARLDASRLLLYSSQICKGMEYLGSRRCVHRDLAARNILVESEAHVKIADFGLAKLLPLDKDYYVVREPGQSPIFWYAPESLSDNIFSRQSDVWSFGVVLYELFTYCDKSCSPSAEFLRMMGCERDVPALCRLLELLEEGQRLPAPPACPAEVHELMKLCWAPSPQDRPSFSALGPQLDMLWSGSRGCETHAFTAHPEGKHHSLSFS
Procedure: as §1, §2, §3, §4

[5] = tested on: human Janus kinase 3 (JAK3), recombinant catalytic domain; assay: LanthaScreen TR-FRET enzymatic assay, JAK3; type: biochemical; conditions: ratio of IC50 against JAK3 over IC50 against JAK1
Procedure: as §1, §2, §3, §4

JAK1 = JAK1 (Homo sapiens (Human), UniProt P23458); assay: Cellular JAK1 assay: IL-6-mediated STAT3 phosphorylation in TF-1 cells; type: cell-based; conditions: IL-6 stimulation, STAT3 phosphorylation at Tyr705 (AlphaLISA), read-out: Inhibitory Activity Against JAK1 IC50
JAK1, sequence (P23458 whole entry): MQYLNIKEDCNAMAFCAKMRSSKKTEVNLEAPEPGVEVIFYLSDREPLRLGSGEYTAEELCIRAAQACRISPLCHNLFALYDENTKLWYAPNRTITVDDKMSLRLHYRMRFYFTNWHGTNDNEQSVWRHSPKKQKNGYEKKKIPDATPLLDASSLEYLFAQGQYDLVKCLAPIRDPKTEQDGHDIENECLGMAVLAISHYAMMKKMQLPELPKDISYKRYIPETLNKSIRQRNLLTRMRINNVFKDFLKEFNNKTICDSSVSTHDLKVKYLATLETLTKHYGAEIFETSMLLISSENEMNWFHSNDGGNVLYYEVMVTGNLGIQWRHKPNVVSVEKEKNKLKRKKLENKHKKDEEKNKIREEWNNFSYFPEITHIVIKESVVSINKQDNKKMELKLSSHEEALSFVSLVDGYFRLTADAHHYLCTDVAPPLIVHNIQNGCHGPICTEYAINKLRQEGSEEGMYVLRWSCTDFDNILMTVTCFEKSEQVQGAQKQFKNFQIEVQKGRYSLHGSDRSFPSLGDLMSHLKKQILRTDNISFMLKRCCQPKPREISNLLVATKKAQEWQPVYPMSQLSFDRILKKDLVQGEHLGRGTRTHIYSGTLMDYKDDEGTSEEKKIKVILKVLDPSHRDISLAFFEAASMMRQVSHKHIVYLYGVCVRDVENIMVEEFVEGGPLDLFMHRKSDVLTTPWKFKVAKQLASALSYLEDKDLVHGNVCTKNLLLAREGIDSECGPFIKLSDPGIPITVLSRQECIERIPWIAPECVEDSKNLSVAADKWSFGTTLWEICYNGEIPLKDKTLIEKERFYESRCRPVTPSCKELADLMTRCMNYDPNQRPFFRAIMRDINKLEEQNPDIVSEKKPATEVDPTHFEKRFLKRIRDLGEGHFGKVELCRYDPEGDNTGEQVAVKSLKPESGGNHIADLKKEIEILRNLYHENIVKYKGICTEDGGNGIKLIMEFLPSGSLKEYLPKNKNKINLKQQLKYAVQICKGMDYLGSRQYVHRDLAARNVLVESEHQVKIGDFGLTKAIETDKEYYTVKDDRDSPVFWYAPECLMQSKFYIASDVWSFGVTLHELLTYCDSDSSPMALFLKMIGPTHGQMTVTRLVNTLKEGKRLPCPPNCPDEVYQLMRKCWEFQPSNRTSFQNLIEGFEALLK
Procedure: The cellular potency of a compound on JAK1 or JAK2 inhibition is determined by measuring the cytokine-mediated phosphorylation of STAT proteins in TF-1 cells.
Human cytokines of IL-6 (R&D Systems, Cat. No. 206-IL-010/CF) and GM-CSF (R&D Systems, Cat. No. 215-GM-010/CF) are reconstituted at 10 μg/mL in D-PBS containing 0.1% BSA (Sigma, Cat. No. A8577) and human EPO (R&D Systems, Cat. No. 287-TC-500) at 500 U/mL in D-PBS containing 0.1% BSA. TF-1 cells (ATCC, CRL-2003) were grown in RPMI1640 (ATCC, Cat. No. 30-2001) supplemented with 2 ng/mL of recombinant human GM-CSF, 10% FBS (Gibco, Cat. No. 10437-028), and 100 U/mL penicillin-streptomycin (Gibco, Cat. No. 15140-122). The cells were maintained and propagated between 1×10^5 cells/mL to 7.5×10^5 cells/mL. Aliquots of the cells from early passages were preserved for liquid nitrogen storage. Frozen vials of the cells were thawed at 37° C. water bath. The cells were spun to remove freezing medium. The newly revived frozen cells were adapted in culture for 5-7 days before used for compound testing. The cells used in for compound testing were less than 20 subculture passages or 3 months in culture.
To test compounds, the TF-1 cells were harvested at a density of 3 to 7×10^5 cells/mL by centrifugation. After removing the culture medium, the resulting cell pellet was suspended and washed once by centrifugation with HBSS buffer (Gibco, Cat. No. 14025-092) containing 0.1% BSA. The cell pellet was resuspended in HBSS buffer at 7.5×10^6 cells/mL. Four micro-liters of the cells (3×10^4 cells in total) were added to each well of a white 384-well plate (Packard, Cat. No. 6005214).
The compounds were first diluted in dimethylsulfoxide (DMSO) (Sigma, Cat. No. D2650) to generate 9 3-fold diluted dosing concentrations in a 96-well polypropylene plate (Corning, Cat. No. 3365), followed by addition of HBSS buffer for another 125-fold dilution. To the cells, 2 μL of the diluted compounds were added and mixed by tapping the plate several times. The cells were incubated for 2 hrs of treatment. DMSO was used as a control and similarly diluted along and added to the cells.
To assay JAK1 inhibition, 2 μL of IL-6 diluted at 400 ng/mL (4×) in HBSS containing 0.1% BSA was added to the treated cells. The cells were then incubated for 30 min of cytokine treatment and lysed at the end by addition of 2 μL of 5×AlphaLISA SureFire Ultra lysis buffer from Perkin Elmer. The plate was agitated on a plate shaker for 10 min at room temperature. The cellular JAK1 activity was determined by measuring STAT3 phosphorylation at Tyr705 in lysates using the AlphaLISA SureFire Ultra kit (Perkin Elmer, Cat. No. ALSU-PST3-A500). A volume of 5 μL of acceptor mix and donor mix was added sequentially to lysates following the product protocol. The assay signals were recorded on EnVision plate reader (Perkin Elmer) with AlphaScreen optics setting.
The results are summarized in Table 3, where A represents a value no greater than 500 nM, B represents a value greater than 500 nM but no greater than 1 μM, C represents a value greater than 1 μM but no greater than 5 μM, and D represents a value greater than 5 μM.

[6] = target: human Janus kinase 1 (JAK1), recombinant catalytic domain (Homo sapiens (Human), UniProt P23458); assay: LanthaScreen TR-FRET enzymatic assay, JAK1; type: biochemical; conditions: 1 mM ATP, GFP-STAT1 substrate, read-out: Inhibitory Activity IC50 JAK1
human Janus kinase 1 (JAK1), recombinant catalytic domain, sequence (P23458 866-1154): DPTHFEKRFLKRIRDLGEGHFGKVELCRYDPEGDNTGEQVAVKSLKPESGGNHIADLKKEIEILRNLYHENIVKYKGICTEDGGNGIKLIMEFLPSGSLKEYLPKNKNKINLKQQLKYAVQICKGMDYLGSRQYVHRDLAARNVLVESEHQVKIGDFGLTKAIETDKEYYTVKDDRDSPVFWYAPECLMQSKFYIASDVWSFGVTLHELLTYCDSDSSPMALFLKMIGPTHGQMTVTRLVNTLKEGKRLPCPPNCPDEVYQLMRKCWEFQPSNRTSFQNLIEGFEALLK
Procedure: as §1, §2, §3, §4

Row | SMILES | IC50 [1] [µM] | IC50 [3] [µM] | IC50 [4] [µM] | IC50 (JAK1) [µM] | IC50 [6] [µM] | Selectivity JAK2/JAK1 [1] | Selectivity TYK2/JAK1 [2] | Selectivity JAK3/JAK1 [5]
1 | O=C(Nc1cn2c(-c3ccc(CN4CCS(=O)(=O)CC4)cc3)cccc2n1)C1CC1 [Compound 1, N-(5-(4-((1,1-Dioxo-1-thiomorpholino)methyl)phenyl)imidazo[1,2-a]pyridin-2-yl) cyclopropanecarboxamide] | 1 to 5 | 1 to 5 | > 5 | ≤ 0.5 | ≤ 0.5 | A′ (A′ represents a ratio of greater than 8) | A′ (A′ represents a ratio of greater than 8) | A′ (A′ represents a ratio of greater than 8)
2 | CC1(C)CN(C(=O)c2ccc(-c3cccc4nc(NC(=O)C5CC5)cn34)cc2)C1 [Compound 17] | 1 to 5 | 1 to 5 | > 5 | ≤ 0.5 | ≤ 0.5 | A′ (A′ represents a ratio of greater than 8) | A′ (A′ represents a ratio of greater than 8) | A′ (A′ represents a ratio of greater than 8)
3 | O=C(Nc1cn2c(-c3ccc(CN4CCOCC4)cc3)cccc2n1)C1CC1 [Compound 4] | > 5 | > 5 | > 5 |  | 0.5 to 1 | A′ (A′ represents a ratio of greater than 8) | A′ (A′ represents a ratio of greater than 8) | A′ (A′ represents a ratio of greater than 8)
4 | O=C(Nc1cn2c(-c3ccc(NS(=O)(=O)C4CC4)cc3)cccc2n1)C1CC1 [Compound 30] | 0.5 to 1 | ≤ 0.5 | > 5 | ≤ 0.5 | ≤ 0.5 | A′ (A′ represents a ratio of greater than 8) | B′ (B′ represents a ratio of no greater than 8 but no less than 4) | A′ (A′ represents a ratio of greater than 8)
5 | Nc1cn2c(-c3ccc(CN4CCS(=O)(=O)CC4)cc3)cccc2n1 [Compound 19] | > 5 | > 5 | > 5 |  | > 5 | A′ (A′ represents a ratio of greater than 8) | C′ (C′ represents a ratio of no greater than 4 but no less than 2) | D′ (D′ represents a ratio of no greater than 2)
6 | Cc1cc(CN2CCS(=O)(=O)CC2)ccc1-c1cccc2nc(NC(=O)C3CC3)cn12 [Compound 12] | > 5 | > 5 | > 5 |  | 1 to 5 | A′ (A′ represents a ratio of greater than 8) | A′ (A′ represents a ratio of greater than 8) | A′ (A′ represents a ratio of greater than 8)

Further lines, with some results ahead:

Row | IC50 [1] [µM] | IC50 [3] [µM] | IC50 [4] [µM] | IC50 (JAK1) [µM] | IC50 [6] [µM] | SMILES | Selectivity JAK2/JAK1 [1] | Selectivity TYK2/JAK1 [2] | Selectivity JAK3/JAK1 [5]
7 | 0.5 to 1 | 0.5 to 1 | > 5 | ≤ 0.5 | ≤ 0.5 | O=C(Nc1cn2c(-c3ccc(CN4CCS(=O)(=O)CC4)c(F)c3)cccc2n1)C1CC1 [Compound 28] | A′ (A′ represents a ratio of greater than 8) | A′ (A′ represents a ratio of greater than 8) | A′ (A′ represents a ratio of greater than 8)
8 | > 5 | > 5 | > 5 |  | 1 to 5 | COc1ccc(-c2cccc3nc(NC(=O)C4CC4)cn23)cc1 [Compound 10] | A′ (A′ represents a ratio of greater than 8) | A′ (A′ represents a ratio of greater than 8) | A′ (A′ represents a ratio of greater than 8)
9 | > 5 | > 5 | > 5 | ≤ 0.5 | ≤ 0.5 | N#CCc1ccc(-c2cccc3nc(NC(=O)C4CC4)cn23)cc1F [Compound 26] | A′ (A′ represents a ratio of greater than 8) | A′ (A′ represents a ratio of greater than 8) | A′ (A′ represents a ratio of greater than 8)
10 | > 5 | > 5 | > 5 |  | ≤ 0.5 | N#CCc1ccc(-c2cccc3nc(NC(=O)C4CC4)cn23)cc1 [Compound 11] | A′ (A′ represents a ratio of greater than 8) | A′ (A′ represents a ratio of greater than 8) | A′ (A′ represents a ratio of greater than 8)
